Assays:
[1] = system: JEKO (Mantle cell lymphoma); assay: viability by DiOC6/PI staining, ibrutinib and/or GAB1 inhibitors; assay type: cell-based; settings: ibrutinib 1 μM six days, then GAB1 inhibitors 25 μM 48 hours, DMSO control 76.64
Experimental: (§1) Cells were cultivated for six days (see Material and Method section) and ibrutinib or DMSO were supplemented each second day. […] The analysis was performed using BD FACS Verse flow cytometer (BD Biosciences).

[2] = system: OciLy5 (Small lymphocytic leukemia); assay: as above; assay type: cell-based; settings: ibrutinib 1 μM six days, then GAB1 inhibitors 25 μM 48 hours, DMSO control 81.47
Experimental: as §1

[3] = system: ML2 (Acute myeloid leukemia); assay: as above; assay type: cell-based; settings: ibrutinib 1 μM six days, then GAB1 inhibitors 25 μM 48 hours, DMSO control 76.92
Experimental: as §1

[4] = system: MEC1 cells; assay: as above; assay type: cell-based; settings: ibrutinib 1 μM six days, then GAB1 inhibitors 25 μM 48 hours, DMSO control 85.20
Experimental: Cells were cultivated for six days (see Material and Method section) and ibrutinib or DMSO were supplemented each second day. […] After that were cells harvested and stained for viability using DiOC6/PI (3,3′-dihexyloxacarbocyanine iodide together with propidium iodide (catalog numbers: D273 and P3566; both were obtained from Thermo Fisher Scientific). Cells were stained and analyzed according to manufacturer protocol. The analysis was performed using BD FACS Verse flow cytometer (BD Biosciences).

[5] = system: GRANTA (Acute lymphoblastic leukemia); assay: viability by DiOC6/PI staining, GAB1 inhibitors; assay type: cell-based; settings: 48 hours, DMSO control 87.24
Experimental: (§2) In a further experiment, 2.5×10^6/ml of RAMOS (derived from Burkitt's lymphoma) or DOHH2 (derived from diffuse large B cell lymphoma) or GRANTA (derived from […]) or WSU-NHL (derived from follicular lymphoma) cells was treated with treated with two different GAB inhibitors (inhGAB1-001 and inhGAB1-004; provided by MD Anderson, USA (Lu Chen et al., PLoS Comput Biol. 2015; 11(1): e1004021.) at final concentration 25 μM, or with an equal volume of vehicle (DMSO) for 48 hours. After that, cells were harvested and stained for viability using DiOC6/PI (3,3′-dihexyloxacarbocyanine iodide together with propidium iodide; catalog numbers: D273 and P3566; both were obtained from Thermo Fisher Scientific). Cells were stained and analyzed according to manufacturer protocol. The analysis was performed using BD FACS Verse flow cytometer (BD Biosciences).

[6] = system: WSU-NHL (Follicular lymphoma); assay: viability by DiOC6/PI staining, GAB1 inhibitors; assay type: cell-based; settings: Homo sapiens, 48 hours, DMSO control 87.34
Experimental: as §2

[7] = system: DOHH2 (GC-DLBCL); assay: viability by DiOC6/PI staining, GAB1 inhibitors; assay type: cell-based; settings: Homo sapiens, DOHH-2, 48 hours, DMSO control 81.84
Experimental: as §2

[8] = system: RAMOS (Burkitt's lymphoma); assay: viability by DiOC6/PI staining, GAB1 inhibitors; assay type: cell-based; settings: Homo sapiens, 48 hours, DMSO control 95.01
Experimental: as §2

[9] = system: primary CLL cells; assay: competitive migration assay (transwell) after inhibitor treatment; assay type: cell-based, human; settings: GAB1 inhibitors 50 μM, ibrutinib 1 μM, 12 hours, migration towards conditioned media (50%) 6 hours, control set to 1
Experimental: HS5 cells (3.5×10^6) were seeded in T75 cultivation flask (TPP) in 12 ml of Dulbecco's Modified Eagle's Medium media (DMEM, catalog number: D6429, Sigma-Aldrich). The next day was original media discarded, the cells attached to the bottom of the flask were washed once with 10 ml of PBS (catalog number: 5493; Sigma Aldrich). Subsequently, the 25 ml of RPMI-1640 (catalog number: R8758, Sigma-Aldrich) media was added to the attached HS5 cells. After 48 hours was this conditioned media collected, purified from cell-debris by 10 minutes centrifugation at 2000 RCF and subsequently diluted with fresh RPMI-1640 media (catalog number: R8758, Sigma-Aldrich) containing 10% FBS (catalog number: FB-1350; Biosera) and 5% penicillin/streptomycin (catalog number: P4333; Sigma Aldrich) to final concentration 50% conditioned media. This media was immediately used for experiments.
To compare the migration, the stained cells (control cells plus one treated variant) were mixed in ratio 1:1 and loaded in transwell inserts (24 well insert, 8 μm pore size; Falcon, Corning) according to manufacturer protocol. […] The ratio of migrated inhibitor-treated cells was calculated by dividing of the percentage of migrated inhibitor-treated cells by percentage of migrated control cells.

[10] = system: primary CLL cells; assay: Ca2+ flux (Fluo-4AM, flow cytometry) after SDF1 stimulation; assay type: cell-based, human; settings: 25 μM inhibitor 6 hours, SDF1 100 μg/ml
Experimental: Primary CLL cells (5×10^6/ml) were treated with 25 μM GAB1-001 inhibitor (inhGAB1-001) or GAB1-004 inhibitor (inhGAB1-004) for 6 hours (culture conditions are described in the Material and Method section). These inhibitors were obtained from MD Anderson, USA (Lu Chen et al., PLoS Comput Biol. 2015; 11(1): e1004021.). Control cells were treated with an equal volume of DMSO also for 6 hours. After that were these cells incubated in Hanks Balanced Salt Solution (HBSS, catalog number: H6648, Sigma Aldrich) containing […] Fluo-4AM (catalog number: F14201, Thermo Fisher Scientific) for 30 minutes at 37° C. in the dark. The cells were subsequently prepared for analysis according to instructions provided by the manufacturer of Fluo-4AM. The malignant B cells were subsequently analyzed by flow cytometry (BD FACS Verse, BD Biosciences). Samples were acquired for 60 seconds without stimulation. After that the cells were immediately stimulated by SDF1 100 μg/ml (catalog number: 300-28A, Peprotech). […] To calculate the response to SDF1, we established a baseline fluorescence threshold for each sample (by acquiring samples for 60 seconds without any stimulus). We then calculated the peak Fluo-4AM signal and the percentage of cells with fluorescence intensity above baseline Fluo-4AM signal following stimulation addition.

[11] = system: primary CLL cells; assay: viability by DiOC6/PI staining, flow cytometry; assay type: cell-based; settings: Homo sapiens, CLL cell, 48 hours, DMSO control 55.67
Experimental: To see the effect of GAB1 inhibitors on malignant B cell viability we treated 5×10^6/ml of primary CLL cells with different doses (10, 25 or 50 μM) of GAB1-001 inhibitor (inhGAB1-001) or GAB1-004 inhibitor (inhGAB1-004) for 48 hours. These inhibitors were obtained from MD Anderson, USA (Lu Chen et al., PLoS Comput Biol. 2015; 11(1): e1004021.). Control cells were treated with an equal volume of DMSO also for 48 hours (culture conditions are described in the Material and Method section). After that, the cells were stained with DiOC6/PI (3,3′-dihexyloxacarbocyanine iodide together with propidium iodide; catalog numbers: D273 and P3566; both were obtained from Thermo Fisher Scientific). Cells were stained and analyzed according to manufacturer protocol. The analysis was performed using BD FACS Verse flow cytometer (BD Biosciences).

[12] = system: phospho-GAB1 Y307 in primary CLL cells; assay: immunoblot of GAB1 phosphorylation after stimulation with SDF1 or conditioned media, with or without plerixafor; assay type: cell-based, human
Experimental: Samples were sonicated 2×10 seconds, amplitude 60% (type: UP100H; Hielscher). […] Electrophoresis was conducted using Biorad Miniprotean system (Biorad) according to manufacturer protocol (voltage: 60-110 V, electrophoresis buffer: 25 mM TRIS, 250 mM glycine, […], pH 8.2; all reagents were obtained from Sigma Aldrich; catalog numbers: L3771, T6066, H1758, G8898). Proteins were subsequently transferred to the PVDF membrane (0.45 μm pore size, Millipore) using Biorad Miniprotean system (Biorad) according to manufacturer protocol (blot buffer: 20% methanol, 192 mM glycine, 25 mM TRIS; all reagents were obtained from Sigma Aldrich; catalog numbers: 34860, T6066, H1758, G8898).
HS5 cells (3.5×10^6) were seeded in T75 cultivation flask (TPP) in 12 ml of Dulbecco's Modified Eagle's Medium media (DMEM, catalog number: D6429, Sigma-Aldrich). The next day was original media discarded, the cells attached to the bottom of the flask were washed once with 10 ml of PBS (catalog number: 5493; Sigma Aldrich). Subsequently, the 25 ml of RPMI-1640 (catalog number: R8758, Sigma-Aldrich) media was added to the attached HS5 cells. […] This media was immediately used for experiments.
Primary CLL cells (5×10^6/ml) were cultured as described in Material and Method section. […]

Compound | % of viability [1] | % of viability [2] | % of viability [3] | % of viability [4] | viability at 25 µM [5] | viability at 25 µM [6] | viability at 25 µM [7] | viability at 25 µM [8] | Ratio of migrated cells [9] | Ca2+ flux after treatment with SDF1 (FIG. 2G) [10] | viability at 10 µM [11] | viability at 25 µM [11] | viability at 50 µM [11] | GAB1 phosphorylation on conditioned media in the presence of plerixafor (FIG. 1A) ([12]; plerixafor 5 μg/ml 8 hours, 50% conditioned media 5 minutes) | GAB1 phosphorylation on stimulation (FIG. 1A) ([12]; SDF1 100 ng/ml, 5 minutes)
C=CC(=O)N1CCC[C@@H](n2nc(-c3ccc(Oc4ccccc4)cc3)c3c(N)ncnc32)C1 [ibrutinib] | 60.14% | 80.33% | 68.93% | 81.66% |  |  |  |  |  |  |  |  |  |  | 
O=S(=O)(NCc1csc2ccc(Cl)cc12)c1cc(S(=O)(=O)c2ccccc2)cs1 [inhGAB1-001] | 2.88% | 53.12% | 6.86% | 67.00% | 4.49% | 29.4% | 51.9% | 50.3% | 0.79 | decreases the Ca^2+ flux | 52.8% | 50.3% | 31% |  | 
O=c1[nH]nc(SCc2csc(-c3ccccc3)n2)n1Cc1ccco1 [inhGAB1-004] | 49.20% | 62.46% | 28.07% | 74.52% | 74.1% | 70.2% | 72.3% | 74.6% | 0.75 | decreases the Ca^2+ flux | 44.7% | 42.6% | 37.4% |  | 
c1cc(CN2CCCNCCNCCCNCC2)ccc1CN1CCCNCCNCCCNCC1 [plerixafor] |  |  |  |  |  |  |  |  |  |  |  |  |  | also led to GAB1 phosphorylation | 
SDF1: Stromal cell-derived factor 1, chemokine ligand used as stimulus |  |  |  |  |  |  |  |  |  |  |  |  |  |  | phosphorylation and thus activation of GAB1 protein

From patent US11648255B2, “Inhibitors for treatment of hematological malignancies” (Masarykova Univerzita, priority 2020, dated 2023)
